Results as given in patent publication US9687497B1, “Salts and polymorphs of cyclic boronic acid ester derivatives and therapeutic uses thereof” (Rempex Pharmaceuticals, Inc., priority 2014, dated 2017).
Where two headings read alike, the source gives them in different places.

Legend:
[1] = Salt-screening study (crystalline form screening of Compound 1 with counterions); assay type: physicochemical; details: for formation of pure and stable crystalline salt form, overall salt screen: approximately 360 screening experiments, FT-Raman and PXRD
Method: During the salt-screening step, 60 combinations of […] counterions with nine solvent systems were tested.
The screening studies were conducted in two stages.
In Stage 1, the samples involving counterion Nos. 1-6 listed in Table 1 were paired with solvent Nos. 1-6 listed in Table 2, whereas samples involving counterion Nos. 7 and 8 were paired with solvent Nos. 1-5 and 8.
In Stage 2, a few samples that remained undissolved and amorphous in the first stage were 1) subjected to rapid solvent evaporation under vacuum; 2) dissolved in solvent Nos. 7-9 listed in Table 2; 3) cooled to 5° C. and held at 5° C. for 72 hrs; and 4) allowed to evaporate at ambient conditions over 3-7 days.
(§1) All samples were inspected visually and by Polarized light microscopy at every step listed above to check any formation of crystalline products. Any crystalline products obtained from these procedures were isolated by vacuum filtration and, where possible, analyzed by FT-Raman. Unique crystalline products were subjected to further analyses by PXRD, DSC, TGA-IR, and HPLC, as necessary.

[2] = HPLC analysis of salt-screening products for decomposition; assay type: physicochemical; details: solvent system THF and Water (95:5 vol %)
Description: as §1

[3] = counterion itself; cited from earlier work
[4] = pKa of Compound 1; assay type: physicochemical
[5] = Chemical stability of Compound 1 in solution; assay type: physicochemical; details: solutions having pH values between 2 and 8
[6] = Solubility of Compound 1 in salt-screening solvents; assay type: physicochemical; details: for solubility: organic solvent or mixture, read-out: solubility of Compound 1 (S)
Method: Nine solvent systems were evaluated in the Salt-screening study. The solvents were selected based on the solubility data accumulated during preceding studies. In addition, solvents represented a diverse set of polarities, dielectric constants, dipole moments, and hydrogen-bond donor/acceptor attributes to promote crystallization of salts.

[7] = Open-air handling and stability of isolated potassium salt; assay type: physicochemical
Method: The potassium salt was subsequently reproduced at 50 mg and 300 mg scales using seeding, which facilitated crystallization of the several hours of amorphous intermediate phase. […] Once a free-flowing powder was isolated, the powder was stable in open-air for at least 7 days.

With [Ca+2].[OH-].[OH-] [Calcium hydroxide] the “formation of pure and stable crystalline salt form, overall salt screen” value (from here on “formation”) [1] was “no pure and stable crystalline salt was formed” and the “decomposition in screening products by HPLC” value (shortened to “decomposition”) [2] was “significant decomposition”.
For C[N+](C)(C)CCO.[OH-] [Choline hydroxide], the “decomposition” value [2] is listed as “significant decomposition” and the pKa3 [3] is listed as greater than 11.
In the case of O=C(O)C[C@@H]1CC[C@H](NC(=O)Cc2cccs2)B(O)O1 [Compound 1, 2-((3R,6S)-2-hydroxy-3-(2-(thiophen-2-yl)acetamido)-1,2 oxaborinan-6-yl)acetic acid], the pKa [4] is reported as 3.92, the “chemical stability of boronic acid moiety in solution” value [5] is reported as “chemically stable” and the solubility ([6]; 1,4-dioxane) is reported as 1000 to 10000 µg/mL. For the same compound, the solubility ([6]; MTBE) was less than 1000 µg/mL, the solubility ([6]; THEF Water (95:5% vol.)) was greater than 1000 µg/mL and the “solubility of Compound 1” value ([6]; Water) was “Low solubility of Compound 1”. It also gave a solubility ([6]; acetone) of less than 1000 µg/mL, a solubility ([6]; acetonitrile (ACN)) of less than 1000 µg/mL and a solubility ([6]; ethyl acetate) of less than 1000 µg/mL. For the same compound, the solubility ([6]; ACN: Water (90:10% vol.)) was less than 20000 µg/mL.
With O=C([O-])C[C@@H]1CC[C@H](NC(=O)Cc2cccs2)B(O)O1.[K+] [Compound 1A, potassium salt of 2-((3R,6S)-2-hydroxy-3-(2-(thiophen-2-yl)acetamido)-1,2-oxaborinan-6-yl)acetic acid] the “formation” value [1] was “yielded a pure and stable crystalline form”, the “formation” value ([1]; listed as potassium salt of compound 1) was “yielded crystalline products” and the propensity for polymorphism ([1]; only one crystalline form observed in the study) was “low propensity for polymorphism”. For the same compound, the deliquescence on isolation ([7]; isolated in open air, reduced or eliminated under nitrogen blanket) was “may undergo deliquescence” and the “stability of isolated free-flowing powder in open-air” value ([7]; open air) was “at least 7 days”.
With [Mg+2].[OH-].[OH-] [Magnesium hydroxide] the “formation” value [1] was “no pure and stable crystalline salt was formed” and the “decomposition” value [2] was “significant decomposition”.
For CC(C)(C)[O-].[K+] [Potassium t-butoxide], the pKa3 [3] is given as roughly 14.
With [K+] [potassium] the “decomposition” value [2] was “significant decomposition”.
